Converted amounts (≈) assume the structure as drawn. Non-standard residues stand in square brackets, D forms with d. Residues, ends and D or L forms follow the SMILES beside them. ξ: configuration not given here. Pro(3ξ,4ξ-(CH2)4) = O=C(O)[C@H]1NCC2CCCCC21; Tic = O=C(O)[C@@H]1Cc2ccccc2CN1
What was measured:
[1] = test system: Mycolicibacterium fortuitum; test: Antibacterial activity against Mycobacterium ranae; format: functional
Staphylococcus aureus = test: Antibacterial activity against Staphylococcus aureus; format: functional

Structure (SMILES) | MIC [1] [µM] | MIC (Staphylococcus aureus) [µM]
NCCCC[C@H](NC(=O)[C@H](CCCCN)NC(=O)[C@H](CCCCN)NC(=O)[C@H](CCCCN)NC(=O)[C@@H]1Cc2ccccc2CN1C(=O)[C@H](CCCCN)NC(=O)CNC(=O)[C@@H]1C2CCCCC2CN1C(=O)[C@@H]1Cc2ccccc2CN1C(=O)[C@H](Cc1ccccc1)NC(=O)CNC(=O)[C@@H]1C2CCCCC2CN1C(=O)[C@@H]1Cc2ccccc2CN1C(=O)[C@H](CCCCN)NC(=O)CNC(=O)[C@@H]1C2CCCCC2CN1C(=O)[C@@H]1Cc2ccccc2CN1C(=O)[C@H](Cc1ccccc1)NC(=O)CN)C(N)=O (stereo partly specified) (H-GF[Tic][Pro(3ξ,4ξ-(CH2)4)]GK[Tic][Pro(3ξ,4ξ-(CH2)4)]GF[Tic][Pro(3ξ,4ξ-(CH2)4)]GK[Tic]KKKK-NH2) | 10 (≈ 24 µg/mL) | 10 (≈ 24 µg/mL)
CC(C)C[C@H](NC(=O)[C@@H](N)CCCCN)C(=O)N1Cc2ccccc2C[C@H]1C(=O)N1CC2CCCCC2[C@H]1C(=O)NCC(=O)N[C@@H](CCCCN)C(=O)N1Cc2ccccc2C[C@H]1C(=O)N1CC2CCCCC2[C@H]1C(=O)NCC(=O)N[C@@H](Cc1ccccc1)C(=O)N1Cc2ccccc2C[C@H]1C(=O)N1CC2CCCCC2[C@H]1C(=O)NCC(=O)N[C@@H](CCCCN)C(=O)N1Cc2ccccc2C[C@H]1C(=O)N[C@@H](CCCCN)C(=O)N[C@@H](CCCCN)C(=O)N[C@@H](CCCCN)C(=O)N[C@@H](CCCCN)C(N)=O (stereo partly specified) (H-KL[Tic][Pro(3ξ,4ξ-(CH2)4)]GK[Tic][Pro(3ξ,4ξ-(CH2)4)]GF[Tic][Pro(3ξ,4ξ-(CH2)4)]GK[Tic]KKKK-NH2) | 3 (≈ 7.31 µg/mL) | 30 (≈ 73.1 µg/mL)
CC(C)C[C@H](NC(=O)[C@@H](N)CCCCN)C(=O)N1Cc2ccccc2C[C@H]1C(=O)N1CC2CCCCC2[C@H]1C(=O)N[C@@H](CCCCN)C(=O)N1Cc2ccccc2C[C@H]1C(=O)N1CC2CCCCC2[C@H]1C(=O)N[C@@H](Cc1ccccc1)C(=O)N1Cc2ccccc2C[C@H]1C(=O)N1CC2CCCCC2[C@H]1C(=O)N[C@@H](CCCCN)C(=O)N1Cc2ccccc2C[C@H]1C(=O)N1CC2CCCCC2[C@H]1C(=O)N[C@@H](Cc1ccccc1)C(=O)N1Cc2ccccc2C[C@H]1C(=O)N1CC2CCCCC2[C@H]1C(=O)N[C@@H](CCCCN)C(=O)N1Cc2ccccc2C[C@H]1C(=O)N1CC2CCCCC2[C@H]1C(=O)N[C@@H](CCCCN)C(=O)N[C@@H](CCCNC(=N)N)C(N)=O (stereo partly specified) (H-KL[Tic][Pro(3ξ,4ξ-(CH2)4)]K[Tic][Pro(3ξ,4ξ-(CH2)4)]F[Tic][Pro(3ξ,4ξ-(CH2)4)]K[Tic][Pro(3ξ,4ξ-(CH2)4)]F[Tic][Pro(3ξ,4ξ-(CH2)4)]K[Tic][Pro(3ξ,4ξ-(CH2)4)]KR-NH2) | 30 (≈ 92.5 µg/mL) | 10 (≈ 30.8 µg/mL)

Source: ChEMBL document CHEMBL1138365, “Application of 3D-QSAR for identification of descriptors defining bioactivity of antimicrobial peptides” (2007)
